In US9266904B2, “6-bridged heteroaryldihydropyrimidines for the treatment and prophylaxis of hepatitis B virus infection” (priority 2013, dated 2016):
Values after ≈ are worked out from the molar mass of the structure shown. Read-outs that look alike come from different tables or passages of the source.

Tests used:
[1] = Human microsomal clearance assay; assay type: in vitro ADME
Summary of the method: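 Liver microsomes (0.5 mg/mL protein) were incubated with 1 μM compound at 37 °C, pH 7.4 phosphate, with an NADPH-regenerating system. Samples at 0-30 min were quenched and measured by LC-MS/MS for parent loss. No-NADPH controls were included.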

HepDE19 cells = experiment: Cytotoxicity (CCK-8 cell viability) and selectivity index; assay type: cell-based, human; conditions: cytotoxicity, concentration resulting in death of 50% of host cells
Source text: HepG2.2.15 and HepDE19 are stably-transfected cell lines containing the HBV genome. Both cell lines are derived from the hepatoblastoma cell line Hep G2 (American Type Culture Collection, ATCC® HB-8065™) by the published procedures described in references: M A Selles et al. Proc. Natl. Acad. Sci. USA 1987, 84, 1005-1009 and H Guo et al. Journal of Virology 2007, 81, 12472-12484, respectively. Both cell lines were maintained in Dulbecco's modified Eagle's medium (DMEM)-F12 medium supplemented with 10% fetal bovine serum, 100 U/mL penicillin, 100 μg/mL streptomycin, and 0.5 mg/mL of G418.
In a cell culture model, apparent antiviral activity of a compound can be the result of host cell death after exposure to the compound. To determine whether the anti-HBV effect of a test compound is due to cytotoxicity, HepDE19 cells were seeded into 96-well plates (5×10^3 cells per well) and treated with compounds as described above for EC50 determination. Five days after treatment, cell viability was measured by addition of 20 μL of CCK-8 reagent. Two hours after incubation at 37° C., the absorbance at wavelengths of 450 nm and 630 nm (OD450 and OD630) was recorded by a plate reader. The concentration results in the death of 50% of the host cells (CC50) of each compound was determined (See Table 5).

[2] = tested on: HBV replication in HepG2.2.15 cells; experiment: Anti-HBV activity in vitro in HepG2.2.15 cells (extracellular HBV DNA by qPCR); assay type: cell-based; conditions: read-out: EC50
Summary of the method: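 Constitutively HBV-producing HepG2.2.15 cells were seeded overnight at 37 °C, then treated with half-log serial dilutions of compound (0.5% DMSO final) for five days. Supernatant HBV DNA was extracted and quantified by qPCR; EC50 is the concentration inhibiting HBV replication by 50%.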

[3] = Lyophilisation solubility assay (Lysa); assay type: physicochemical; conditions: pH 6.5, aqueous buffer, thermodynamic from solid
Summary of the method: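 DMSO was evaporated from 10 mM stocks, and residues were taken up in 0.05 M phosphate buffer pH 6.5, stirred 1 h, shaken 2 h and left overnight. Filtrates were quantified by UV or HPLC-UV against a four-point calibration, in duplicate. Values are in μg/ml, with a lower-bound value when >80% dissolved.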

[4] = Hepatitis B virus, HepG2.2.15, Anti-HBV activity in HepG2.2.15 cells

SMILES | CLh ([1]; human microsomal clearance) | CC50 (HepDE19 cells) | EC50 ([2]; Anti-HBV activity in HepG2.2.15 cells) | CLh ([1]; human, 1 μM, pH 7.4) | solubility thermodynamic [3] | EC50 [2, 4]
COC(=O)C1=C(CN2[C@@H]3C[C@@H](CC(=O)O)C[C@H]2C(F)(F)C3)NC(c2nccs2)=N[C@H]1c1ccc(Cl)c(F)c1 (single isomer, unassigned) [Example 113, 2-[(1R,3R,5S)-8-[[(4S)-4-(4-chloro-3-fluoro-phenyl)-5-methoxycarbonyl-2-thiazol-2-yl-1,4-dihydropyrimidin-6-yl]methyl]-6,6-difluoro-8-azabicyclo[3.2.1]octan-3-yl]acetic acid or 2-[(1S,3S,5R)-8-[[(4S)-4-(4-chloro-3-fluoro-phenyl)-5-methoxycarbonyl-2-thiazol-2-yl-1,4-dihydropyrimidin-6-yl]methyl]-6,6-difluoro-8-azabicyclo[3.2.1]octan-3-yl]acetic acid] | 6.2 mL/min/kg | 58000 nM | 9.1 nM |  |  | 
COC(=O)C1=C(CN2[C@H]3CC[C@]2(C(=O)O)COC3)NC(c2nccs2)=N[C@H]1c1ccc(F)c(F)c1C [Example 84, (1S,5R)-8-[[(4S)-4-(3,4-difluoro-2-methyl-phenyl)-5-methoxycarbonyl-2-thiazol-2-yl-1,4-dihydropyrimidin-6-yl]methyl]-3-oxa-8-azabicyclo[3.2.1]octane-5-carboxylic acid] |  |  |  | 0 mL/min/kg | > 643 µg/mL | 37.6 nM
COC(=O)C1=C(CN2[C@@H]3C[C@H](CC(=O)O)C[C@H]2C(F)(F)C3)NC(c2nccs2)=N[C@H]1c1ccc(F)cc1Cl [Example 86, 2-[(1R,3S,5S)-8-[[(4R)-4-(2-chloro-4-fluoro-phenyl)-5-methoxycarbonyl-2-thiazol-2-yl-1,4-dihydropyrimidin-6-yl]methyl]-6,6-difluoro-8-azabicyclo[3.2.1]octan-3-yl]acetic acid] |  |  |  | 0 mL/min/kg | 149 µg/mL (≈ 262 µM) | 2 nM
COC(=O)C1=C(CN2[C@H]3COC[C@@H]2[C@@H](F)[C@H](CC(=O)O)C3)NC(c2nccs2)=N[C@H]1c1cccc(F)c1Cl [Example 101, 2-[(1R,5R,6S,7S)-9-[[(4R)-4-(2-chloro-3-fluoro-phenyl)-5-methoxycarbonyl-2-thiazol-2-yl-1,4-dihydropyrimidin-6-yl]methyl]-6-fluoro-3-oxa-9-azabicyclo[3.3.1]nonan-7-yl]acetic acid] |  |  |  | 0 mL/min/kg | 580 µg/mL (≈ 1020 µM) | 24 nM
CCOC(=O)C1=C(CN2[C@@H]3COC[C@H]2[C@H](F)[C@@H](CC(=O)O)C3)NC(c2nccs2)=N[C@H]1c1ccccc1Cl [Example 102, 2-[(1S,5S,6R,7R)-9-[[(4R)-4-(2-chlorophenyl)-5-ethoxycarbonyl-2-thiazol-2-yl-1,4-dihydropyrimidin-6-yl]methyl]-6-fluoro-3-oxa-9-azabicyclo[3.3.1]nonan-7-yl]acetic acid] |  |  |  | 3.0 mL/min/kg | 410 µg/mL (≈ 728 µM) | 66 nM
CCOC(=O)C1=C(CN2[C@H]3COC[C@@H]2[C@@H](F)[C@H](CC(=O)O)C3)NC(c2nccs2)=N[C@H]1c1ccccc1Cl [Example 103, 2-[(1R,5R,6S,7S)-9-[[(4R)-4-(2-chlorophenyl)-5-ethoxycarbonyl-2-thiazol-2-yl-1,4-dihydropyrimidin-6-yl]methyl]-6-fluoro-3-oxa-9-azabicyclo[3.3.1]nonan-7-yl]acetic acid] |  |  |  | 0 mL/min/kg | 345 µg/mL (≈ 613 µM) | 274 nM
COC(=O)C1=C(CN2[C@@H]3C[C@H](CC(=O)O)C[C@H]2C(F)(F)C3)NC(c2nccs2)=N[C@H]1c1ccc(F)c(F)c1 [Example 114, 2-[(1R,3S,5S)-8-[[(4S)-4-(3,4-difluorophenyl)-5-methoxycarbonyl-2-thiazol-2-yl-1,4-dihydropyrimidin-6-yl]methyl]-6,6-difluoro-8-azabicyclo[3.2.1]octan-3-yl]acetic acid] |  |  |  | 1.2 mL/min/kg | 224 µg/mL (≈ 405 µM) | 6.3 nM
COC(=O)C1=C(CN2[C@H]3C[C@@H](CC(=O)O)C[C@@H]2C(F)(F)C3)NC(c2nccs2)=N[C@H]1c1ccc(F)c(F)c1 [Example 115, 2-[(1S,3R,5R)-8-[[(4S)-4-(3,4-difluoro-phenyl)-5-methoxycarbonyl-2-thiazol-2-yl-1,4-dihydropyrimidin-6-yl]methyl]-6,6-difluoro-8-azabicyclo[3.2.1]octan-3-yl]acetic acid] |  |  |  | 4.6 mL/min/kg | 128 µg/mL (≈ 232 µM) | 163 nM
COC(=O)C1=C(CN2C3COCC2C(O)[C@H](CC(=O)O)C3)NC(c2nccs2)=N[C@H]1c1ccc(F)cc1Cl (stereo partly drawn) [Example 123, 2-[(7S)-9-[[(4R)-4-(2-chloro-4-fluoro-phenyl)-5-methoxycarbonyl-2-thiazol-2-yl-1,4-dihydropyrimidin-6-yl]methyl]-6-hydroxy-3-oxa-9-azabicyclo[3.3.1]nonan-7-yl]acetic acid] |  |  |  | 3.0 mL/min/kg | > 753 µg/mL | 35.7 nM
COC(=O)C1=C(CN2C3COCC2C(O)[C@@H](CC(=O)O)C3)NC(c2nccs2)=N[C@H]1c1ccc(F)cc1Cl (stereo partly drawn) [Example 124, 2-[(7R)-9-[[(4R)-4-(2-chloro-4-fluoro-phenyl)-5-methoxycarbonyl-2-thiazol-2-yl-1,4-dihydropyrimidin-6-yl]methyl]-6-hydroxy-3-oxa-9-azabicyclo[3.3.1]nonan-7-yl]acetic acid] |  |  |  | 4.2 mL/min/kg | > 753 µg/mL | 296 nM
COC(=O)C1=C(CN2C3COCC2C(F)(F)[C@@H](CC(=O)O)C3)NC(c2nccs2)=N[C@H]1c1ccc(F)cc1Cl (stereo partly drawn) [Example 125, 2-[(7R)-9-[[(4R)-4-(2-chloro-4-fluoro-phenyl)-5-methoxycarbonyl-2-thiazol-2-yl-1,4-dihydropyrimidin-6-yl]methyl]-6,6-difluoro-3-oxa-9-azabicyclo[3.3.1]nonan-7-yl]acetic acid] |  |  |  | 0 mL/min/kg | 170 µg/mL (≈ 291 µM) | 26.1 nM
COC(=O)C1=C(CN2C3COCC2CC(CC(=O)O)C3)NC(c2nccs2)=N[C@H]1c1ccccc1Br (stereo partly drawn) [Example 134, Endo-2-[9-[[(4R)-4-(2-bromophenyl)-5-methoxycarbonyl-2-thiazol-2-yl-1,4-dihydropyrimidin-6-yl]methyl]-3-oxa-9-azabicyclo[3.3.1]nonan-7-yl]acetic acid] |  |  |  | 1.7 mL/min/kg | > 695 µg/mL | 21 nM
COC(=O)C1=C(CN2C3COCC2CC(CC(=O)O)C3)NC(c2nccs2)=N[C@H]1c1ccc(Cl)c(F)c1 (stereo partly drawn) [Example 136, Endo-2-[9-[[(4S)-4-(4-chloro-3-fluoro-phenyl)-5-methoxycarbonyl-2-thiazol-2-yl-1,4-dihydropyrimidin-6-yl]methyl]-3-oxa-9-azabicyclo[3.3.1]nonan-7-yl]acetic acid] |  |  |  | 5.5 mL/min/kg | 485 µg/mL (≈ 883 µM) | 102 nM
COC(=O)C1=C(CN2C3COCC2CC(N)(C(=O)O)C3)NC(c2nccs2)=N[C@H]1c1ccc(F)cc1Cl (stereo partly drawn) [Example 139, 7-amino-9-[[(4R)-4-(2-chloro-4-fluoro-phenyl)-5-methoxycarbonyl-2-thiazol-2-yl-1,4-dihydropyrimidin-6-yl]methyl]-3-oxa-9-azabicyclo[3.3.1]nonane-7-carboxylic acid] |  |  |  | 5.1 mL/min/kg | > 610 µg/mL | 172 nM
COC(=O)C1=C(CN2[C@H]3CC[C@]2(C(=O)O)CC3(F)F)NC(c2nccs2)=N[C@H]1c1ccc(F)cc1Cl [Example 148, (1S,4R)-7-[[(4R)-4-(2-chloro-4-fluoro-phenyl)-5-methoxycarbonyl-2-thiazol-2-yl-1,4-dihydropyrimidin-6-yl]methyl]-2,2-difluoro-7-azabicyclo[2.2.1]heptane-4-carboxylic acid] |  |  |  | 2.3 mL/min/kg | > 655 µg/mL | 59.2 nM
COC(=O)C1=C(CN2[C@@H]3CC[C@@]2(C(=O)O)CC3(F)F)NC(c2nccs2)=N[C@H]1c1ccc(F)cc1Cl [Example 149, (1R,4S)-7-[[(4R)-4-(2-chloro-4-fluoro-phenyl)-5-methoxycarbonyl-2-thiazol-2-yl-1,4-dihydropyrimidin-6-yl]methyl]-2,2-difluoro-7-azabicyclo[2.2.1]heptane-4-carboxylic acid] |  |  |  | 3.4 mL/min/kg | > 665 µg/mL | 4 nM
